The record followed here is US9765063B2, “Amido compounds as RORγt modulators and uses thereof” (New York University, priority 2011, dated 2017).

One may read the IC50 as the concentration at which inhibition is half-maximal.

Entries after “also recorded” stand apart in the source; their conditions may differ. Like-named read-outs stand apart in the source and are kept apart here.

Assay type in all cases: cell-based
The target of test [1] is T1, RORγt (Mus musculus, UniProt P51450).
T1 construct: expressed in transfected cells; the other entry of the earlier key: GAL4 (P04386, Regulatory protein GAL4)
T1 sequence (P51450 with tags, fused parts or gaps): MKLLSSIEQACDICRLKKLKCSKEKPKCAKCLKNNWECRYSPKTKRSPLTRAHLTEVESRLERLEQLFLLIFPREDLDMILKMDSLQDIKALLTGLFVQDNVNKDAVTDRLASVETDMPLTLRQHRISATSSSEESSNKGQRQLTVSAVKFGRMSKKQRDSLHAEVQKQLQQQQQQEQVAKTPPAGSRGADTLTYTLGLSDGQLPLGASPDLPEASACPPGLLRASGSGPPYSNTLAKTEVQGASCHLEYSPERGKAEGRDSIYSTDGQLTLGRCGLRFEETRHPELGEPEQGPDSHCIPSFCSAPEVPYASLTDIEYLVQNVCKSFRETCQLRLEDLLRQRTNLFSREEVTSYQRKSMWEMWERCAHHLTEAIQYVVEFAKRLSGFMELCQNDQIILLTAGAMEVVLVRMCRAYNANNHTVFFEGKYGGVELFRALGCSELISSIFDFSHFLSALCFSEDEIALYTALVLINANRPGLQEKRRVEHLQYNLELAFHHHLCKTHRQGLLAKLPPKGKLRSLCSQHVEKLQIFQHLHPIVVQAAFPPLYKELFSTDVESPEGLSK
Put plainly: RORγt S2 cell reporter assay (Gal4-RORγt fusion, UAS-luciferase). The source says:
Methods: The Drosophila S2 cell line was originally purchased from Invitrogen and was maintained in Schneider's medium supplemented with 10% heat-inactivated bovine fetal calf serum and antibiotics (Invitrogen). […] The resulting chimeric gene was subcloned into the copper inducible pMT/V5-His A vector (available from Invitrogen).
Renilla luciferase construct under the polIII promoter was obtained from Dr. Dasgupta's laboratory (NYU medical center). In order to generate stable cell lines, cells were co-transfected with pMT-G4DBD-RORγt, pMT-G4DBD-RORα, pMT-G4DBD-DHR3, or pMT-G4DBDVP16 and pHygro plasmids (Invitrogen) and screened for resistant colonies in the presence of hygromycin (0.3 mg/mL). […] Using similar methods, stable clones with genomic integration of the luciferase reporters and other reporters were generated such as pMT-RORα_luc, pMT-DHR3_luc, or pMT-VP16_luc.
Methods: 600 G4DBD-RORγ/γt-luc reporter (#25) or G4DBD-VP16-luc reporter cells were distributed into each well of 1,536-well white bottom plates in 4 μl S2 cell culture volume containing hygromicin (300 μg/ml) and puromycin (2 μg/ml). […] After one-hour incubation, 1 of culture medium solution containing copper sulfate (to final 0.7 mM) and 10 μM RORγ/γt antagonists were added to each well. After 20-hour incubation at ambient temperature, 1.5 μl firefly luciferase detection mix was added and the luciferase activities were measured in 10 min. ViewLux luminometers were used for measuring luciferase signal.
A cell-based reporter assay was used to detect RORγt-mediated activity. This assay, called RORγt employed Drosophila Schneider cells that were stably transfected with two vectors: a gene expressing a fusion of the Gal4 DNA binding domain and RORγt transactivation domain under the control of the metallothionine promoter and a Photinus luciferase reporter regulated by the Gal4 binding site enhancer, UAS. […] Cells (600/well) were dispensed into white solid 1536-well plates (Greiner) using a solenoid-based dispenser. Following transfer of […] compound or DMSO vehicle by a pin tool, the plates were incubated 1 hr at ambient temperature, and 1 uL/well copper sulfate (700 uM final concentration) was added. The plates were centrifuged 15 s at 1000 RPM and incubated 20 hr at ambient temperature. After addition of 1.5 uL Photinus luciferase detection reagent, the plates were incubated 10 min at ambient temperature and then read by a ViewLux (Perkin Elmer) to detect luminescence. […] Efficacy is expressed as % of the maximal response of control inhibitor (Digoxin), set at 100%.

Test [2] has as its system mouse Th17 cell differentiation. In words: Th17 assay: mouse Th17 polarization (IL-17a producing cells, FACS). As to conditions: for IC50: naive mouse CD4 T cells, TGFβ and IL6, compounds added Day 1, analyzed Day 4, read-out: Th 17 IC50. The method, then:
(§1) Percentage of DMSO treated IL-17a producing cells was set at 100. Naive mouse CD4 T cells (CD25^−, CD62L^+, and CD44^low-int) were sorted and cultured with CD3/CD28 stimulatory antibodies in the presence of TGFβ (0.1 ng/ml) and IL6 (20 ng/ml). Compounds were added on Day 1 and cells were analyzed on Day 4. For intracellular cytokine staining, cells were incubated for 5 h with phorbol ester (50 ng/ml; Sigma), ionomycin (500 ng/ml; Sigma) and GolgiStop (BD). When needed, surfaces were stained by incubation for 15 min on ice with PECy7-conjugated CD4 (BD Biosciences). The Cytofix/Cytoperm buffer set (BD) was used for intracellular staining. Cells were fixed and made permeable for 30 min on ice and were stained for 30 min on ice in permeabilization buffer with Alexa647-conjugated anti-IL17a (eBioscience) and PE-conjugated anti-IFNg (eBioscience). An LSR II (BD Biosciences) and FlowJo software (Tree Star) were used for flow cytometry. RORg IC50 value acquired from the S2 cell reporter assay is listed for comparison.
as §1, with “With respect to the methodological details pertaining to FIG. 1, naive” for “Percentage of DMSO treated IL-17a producing cells was set at 100. Naive mouse”, “(BD).” for “(BD). When needed, surfaces were stained by incubation for 15 min on ice with PECy7-conjugated CD4 (BD Biosciences).”, “anti-IFNγ” for “anti-IFNg”, “cytometry.” for “cytometry. RORg IC50 value acquired from the S2 cell reporter assay is listed for comparison.”

Test [3] relates to human Th17 cell differentiation. In words: Human Th17 cell differentiation (FACS, FIG. 2). The note with it: FIG. 2, FACS, 0.5 μM. The method, then:
• 1) S2 cell reporter system: Identified hits from HTS are further screened and their specificity confirmed by testing against RORγ-luc, VP16-luc, RORα-luc, and DHR3-luc reporter S2 cell lines. Compounds either having no activity on VP16, RORα, and DHR3 or having ten times higher IC50 values on such reporters are selected for further tests. • 2) Cytokine induced mouse Th17 cells differentiation. Effects on mouse endogenous RORγt in a relevant physiological setting were determined by testing compounds in the Th17 cell differentiation assay. Compounds having RORγt inhibitory activity are predicted to suppress Th17 cell differentiation. Th1 or regulatory T cell differentiation was used as a counter-screen method to select specific compounds that only affect Th17 cell differentiation without having pleiotrophic effects on general T cell proliferation or cytokine production. • 3) ROR dependent Th17 cell differentiation. Compounds were further tested, by examining their effects on T cells expressing RORα or RORγ. […] Compounds affecting IL17a production or ROR regulatory pathways, however, are expected to inhibit both. • 4) Human Th17 cell differentiation. Compound effects on human RORγt will be tested by treating human cord blood CD4 T cells with select compounds to determine if such compounds alter differentiation into Th17 lineages.
(§2) For Th1 differentiation, IL12 (10 ng/ml) and IL2 (100 U/ml) were added to naive CD4 T cell cultures instead of TGFβ and IL6.

Test [4] concerns human Th1 cell differentiation. In words: Human Th1 cell differentiation, IFNγ production (counter-screen, FIG. 2). As to conditions: FIG. 2, FACS, 0.5 μM, naive CD4 T cells, IL12 and IL2. How it is done: as §2
(Counterscreens check selectivity or assay interference.)

Test [5] has as its system RORγt. Put plainly: RORγt overexpression dependent IL17a production in human CD4 T cells (FIG. 3). The note with it: FIG. 3, FACS, 0.5 μM. How it is done: (§3) Briefly, CD3+ CD4+ CD45RA+ naive human T cells were isolated from peripheral blood derived from healthy donors. The naive T cells were cultured in XVIVO-20 (Lonza) medium for 7 days in the presence of IL2 and stimulatory CD3 and CD28 antibodies. Cells were infected with lentivirus encoding human RORα or RORγ and compound or DMSO was added on day 2. FACS plot analysis is shown after gating on GFP expressing (virus infected) cells.

Test [6] deals with RORα. In words: RORα overexpression dependent IL17a production in human CD4 T cells (FIG. 3). As to conditions: FIG. 3, FACS, 0.5 μM; listed as NCGC00238427. How it is done:
as §3

Take `COc1cc(O)c(C(CC(=O)N2CC(C)CC(C)C2)c2cccc(C(=O)O)c2)c(OC)c1` (stereo not shown) [Compound 101, 3-(3-(3,5-Dimethylpiperidin-1-yl)-1-(2-hydroxy-4,6-dimethoxyphenyl)-3-oxopropyl)benzoic acid]: in test [1] (Table 1, % of the maximal response of control inhibitor (Digoxin), set at 100%, read-out: Efficacy (%)), the Emax turned out to be 88.7%. Further, the IC50 in test [1] (Table 1, Drosophila S2 cells, luciferase reporter, read-out: IC50) was 1 to 10 µM; in test [1] (Table 2, from the S2 cell reporter assay, listed for comparison, read-out: S2 cell RORg IC50), 1 to 10 µM; in test [2], greater than 20 µM. In test [3], the “human Th17 cell differentiation” value is “neither of which exhibits the ability to suppress human Th17 or Th1 cell differentiation”. The “Th1 cell differentiation, as measured by IFNγ production” value in test [4] is given as “neither of which exhibits the ability to suppress human Th17 or Th1 cell differentiation”. The “RORγt overexpression dependent IL17a production in human CD4 T cells” value in test [5] was “neither of which exhibits the ability to inhibit RORγt dependent human Th17 cell differentiation”.

As for `COc1cc(O)c(C(CC(=O)N2CC(C)CC(C)C2)c2ccc3c(c2)OCO3)c(OC)c1` (stereo not shown) [RC1, reference compound], the “mouse Th17 cell differentiation, as measured by IL17a production” value in test [2] (FIG. 1, FACS, at the indicated concentrations) is “suppress mouse Th17 cell differentiation”. The IC50 in test [2] lay in the range of 1 to 10 µM. Besides, the “human Th17 cell differentiation” value in test [3] (listed as NCGC00238427) is recorded as “selectively suppress human Th17; also recorded: selectively suppresses human Th17 cell differentiation”. Besides, the “Th1 cell differentiation, as measured by IFNγ production” value in test [4] (listed as NCGC00238427) was “does not inhibit Th1 cell differentiation”. Moreover, the “RORγt overexpression dependent IL17a production in human CD4 T cells” value in test [5] (listed as NCGC00238427) is listed as “selectively inhibit RORγt dependent; also recorded: selectively inhibits RORγt overexpression dependent IL17a production”. Also, in test [6], the “RORα overexpression dependent IL17a production in human CD4 T cells” value was “unaffected”.
